{"source": "a melting point compilation (Tetko et al.; mined from patent text by program, amines drawn as free bases though some values may be those of a salt)"}
{"units": {"melting point": "°C"}}
{"smiles": "O=C(O)c1cnccc1C(=O)c1ccc(F)cc1", "melting point": "231 to 232"}
{"smiles": "O=C(Nc1nc(-c2ccco2)c(-c2ccc(=O)n(Cc3ccccc3)c2)s1)c1ccncc1", "melting point": "215 to 218"}
{"smiles": "O=C(O)COC(=O)c1ccccc1O", "melting point": "131 to 132"}
{"smiles": "Cc1cccc(NC(=O)c2nc(-c3ccccc3)c3ccccc3c2O)n1", "melting point": "261 to 263"}
{"smiles": "COC(OC)c1cnc(N2C(=O)c3ccccc3C2=O)c(C#N)n1", "melting point": "115 to 116"}
{"smiles": "CCOC(=O)c1c[nH]c2cc(C(=O)NC3CCN(Cc4ccccc4)CC3)nn2c1=O", "melting point": "264 to 266"}
{"smiles": "COc1c(O)ccc2cc(-c3ccc(O)cc3)ccc12", "melting point": "204 to 206"}
{"smiles": "CC1(C)C(C(=O)O)N2C(=O)C(NC(=O)Cc3ccccc3)C2S1=O", "note": "(stereo unspecified)", "melting point": "143 to 145"}
{"smiles": "Cc1cc2c(c3ccc(=O)[nH]c13)OC(C(O)CN=[N+]=[N-])C2", "note": "(stereo unspecified)", "melting point": "173 to 175"}
{"smiles": "CC(C)n1cc(-c2ncc(N)nc2-c2ccc(F)cc2)ccc1=O", "melting point": 258}
{"smiles": "CN(CCc1ccc([N+](=O)[O-])cc1)Cc1nc2ccc([N+](=O)[O-])cc2o1", "melting point": "69 to 69.5"}
{"smiles": "Cc1coc(N(CCCCCCN)c2nc(C)co2)n1", "melting point": 124}
{"smiles": "COc1ccc(-c2noc3ccsc23)cc1", "melting point": "93 to 94"}
{"smiles": "COC(=O)Cc1ccc(-c2nc3ccccc3o2)cc1", "melting point": "109 to 112"}
{"smiles": "CC(=O)OCCn1cc(-c2ccccc2)[nH]c1=O", "melting point": "86 to 88"}
{"smiles": "CCCc1ccc(CCCCCCCC(=O)O)cc1", "melting point": "42 to 43"}
{"smiles": "CN[C@@H]1CCCC[C@H]1NC", "note": "(relative stereo)", "melting point": 17}
{"smiles": "COC(=O)c1ccc(-c2ccc(Cl)s2)nc1", "melting point": "122 to 124"}
{"smiles": "CCCCOc1ccc2[nH]n(Cc3ccccc3)c(=O)c2c1", "melting point": "146 to 147"}
{"smiles": "N#Cc1ccc(-c2cn(-c3ccc(C#N)cc3)c(SCc3ccccc3)n2)cc1", "melting point": "168 to 172"}
{"smiles": "CNC(=S)Nc1ccc2c(c1)C(=O)C1(CC1)O2", "melting point": "191 to 194"}
{"smiles": "CC(=O)Oc1ccc(-c2c3ccccc3c(Br)c3sc4ccccc4c23)cc1OC(C)=O", "melting point": "178 to 179"}
{"smiles": "CC(C)n1nc(-c2sc(NC(=O)c3cccc(Cl)c3)nc2-c2ccccc2)ccc1=O", "melting point": "173 to 174"}
{"smiles": "CC(C)(C)OC(=O)N[C@@H](Cc1ccccc1)[C@@H](O)C[C@@H](Cc1ccccc1)c1ncn[nH]1", "melting point": "187 to 188"}
{"smiles": "CCCc1c2cc(C(=O)OCC)oc2cc2c(=O)cc(C(=O)OCC)oc12", "melting point": "145 to 147"}
{"smiles": "Cc1nnccc1-c1c(-c2ccccc2)nn2ccccc12", "melting point": "209 to 214"}
{"smiles": "CON(C)C(=O)c1ccc(-c2ccc(CBr)cc2)cc1", "melting point": "105 to 106"}
{"smiles": "O=S(=O)(c1ccc(Cl)cc1)C1(c2cnccc2Cl)CCCCC1", "melting point": "145 to 147"}
{"smiles": "C=C1CC2C(=CCC3(C)C2CC(C)C3(O)C(C)=O)C2(C)CCC(=O)C=C12", "note": "(stereo unspecified)", "melting point": "157 to 158"}
{"smiles": "Cc1c(C2CCC(c3ccccc3)(N(C)C)CC2)[nH]c2ccc(O)cc12", "note": "(stereo unspecified)", "melting point": "164 to 169"}
{"smiles": "CNC(=O)c1ccc(F)c(F)c1", "melting point": "143 to 145"}
{"smiles": "CCC(=O)N1CCC(=O)c2cc(Cl)c(Cl)cc21", "melting point": "135 to 137"}
{"smiles": "CCc1cc(S(=O)(=O)N(C)C)ccc1-c1cnc2[nH]c(CCc3cc(OC)ccn3)nc2c1", "melting point": "179 to 180"}
{"smiles": "CN1C[C@H]2Cc3ccc(Cl)cc3[C@H](c3ccc(Cl)cc3)[C@H]2C1", "note": "(racemic)", "melting point": "133 to 135"}
{"smiles": "COc1cc(OCCNC(=O)C2Cc3ccccc3N2S(=O)(=O)c2ccc(-c3cc(C(F)(F)F)ccc3Cl)cc2)ccc1C(=O)O", "note": "(stereo unspecified)", "melting point": "98 to 104"}
{"smiles": "COc1ccccc1SCCCCCCCC(=O)O", "melting point": "62 to 63"}
{"smiles": "CCCCC1CC(=O)C2(C)CCC3=C4CCC(=O)C=C4CCC3C12", "note": "(stereo unspecified)", "melting point": "159 to 161"}
{"smiles": "CCOc1cc(C(=O)NC2CC(C)(C)NC(C)(C)C2)ccc1-c1nc2cc(Cl)c(Cl)cc2[nH]1", "melting point": "> 280"}
{"smiles": "C=CCN(C1CCN(C)CC1)S(=O)(=O)c1ccc(Nc2nccc(Nc3ccc(F)cc3)n2)cc1", "melting point": 167}
{"smiles": "CC1(C)c2ccccc2Oc2ncccc21", "melting point": "72 to 73"}
{"smiles": "C=Cc1cc(OCOCCOC)c(OCOCCOC)c(Cl)c1Cl", "melting point": 60}
{"smiles": "CN1CCN(C2=Cc3cc(Cl)ccc3C(=CC#N)c3ccccc32)CC1", "melting point": "196 to 198"}
{"smiles": "CCCCOC(C(=O)Oc1ccc(C(=O)O)cc1)c1ccc2c(c1)C(C)(C)CCC2(C)C", "note": "(racemic)", "melting point": "129 to 130"}
{"smiles": "O=C1N=C(N2CCOCC2)SC1Cc1cccc(-c2ccc(O)c(C3CCCCC3)c2)c1", "note": "(stereo unspecified)", "melting point": "100 to 108"}
{"smiles": "CC(C)c1ccc2nc3ccc(C#N)cc3c(=O)n2c1", "melting point": "207 to 211"}
{"smiles": "O=S1(=O)NCN(C2CC2)c2cc(Br)cc(Br)c21", "melting point": "203 to 205"}
{"smiles": "CC(=O)Nc1ccc(S(=O)(=O)Nc2nc(=O)n(C3CC3)cc2C)cc1", "melting point": "176 to 181"}
{"smiles": "CC(=O)N1N=C(c2ccc(N)cc2)c2cc(Br)ccc2CC1C", "note": "(stereo unspecified)", "melting point": "205 to 208"}
{"smiles": "Cc1oc2c(C)c(C)c(N3Cc4ccccc4C3)c(C)c2c1-c1ccc(C(C)C)cc1", "melting point": "126 to 129"}
{"smiles": "CCOC(=O)c1c(-c2ccccc2)c2cc(Cl)ccc2[nH]c1=O", "melting point": "223 to 224"}
{"smiles": "CCCc1c(OCCCOc2cc(NC(=O)c3nnn[nH]3)c(C)cc2Br)ccc(C(C)=O)c1O", "melting point": "63 to 65"}
{"smiles": "Cc1nc(N)nc(N)c1-c1ccc2ccccc2c1", "melting point": "221 to 222"}
{"smiles": "O=C1Cc2cccc(S(=O)(=O)c3ccccc3)c2N1", "melting point": "217 to 220"}
{"smiles": "CC(C)OCCNS(=O)(=O)NC(=O)OCc1ccccc1", "melting point": "88 to 89"}
{"smiles": "C/C(=C\\c1ccc(C(=O)O)cc1)c1ccc2c(c1)C(C)(C)C(O)CC2(C)C", "note": "(stereo unspecified)", "melting point": "250 to 252"}
{"smiles": "CNC(=O)/C=C/c1ccc(C(=O)NCC(=O)N(C)c2ccc(Cl)c(COc3cccc4ccc(C)nc34)c2Cl)cc1", "melting point": "143 to 150"}
{"smiles": "CCNc1cc(Nc2ccc(OC)cc2)ncn1", "melting point": "190 to 193"}
{"smiles": "NS(=O)(=O)c1ccc(C2=C(c3ccc(Cl)cc3)CCC2)cc1", "melting point": "177 to 178"}
{"smiles": "O=CN1CCn2nccc21", "melting point": "78 to 80"}
{"smiles": "Cc1ccc(NC(=O)c2ccc(/C=C/C(=O)NOC3CCCCO3)cc2)cc1Nc1nc(-c2cccnc2)cs1", "note": "(stereo unspecified)", "melting point": 168}
{"smiles": "CCOC(=O)c1cccc(NC(=O)NCC(=O)N2[C@@H](c3ccccc3)SC[C@H]2C(=O)OC(C)(C)C)c1", "melting point": 85}
{"smiles": "Cc1ccc(Cc2c[nH]c(=S)[nH]c2=O)cn1", "melting point": "240 to 241"}
{"smiles": "Cc1cc(C(O)(C(F)(F)F)C(F)(F)F)cc(C)c1NCCC#N", "melting point": "111 to 114"}
{"smiles": "c1ccc(-c2nn3c(N4CCCC4)nnc3c3ccccc23)cc1", "melting point": "245 to 247"}
{"smiles": "O=C(NCc1ccccn1)c1cc(OCC(F)(F)F)ccc1OCC(F)(F)F", "melting point": "100 to 103"}
{"smiles": "CCCCCCCCCCCCn1nnc(Nc2ccccc2)n1", "melting point": "58 to 61"}
{"smiles": "CC(C)(Oc1ccc(NC(=O)Nc2ccc(Cl)c(Cl)c2)cc1)C(=O)O", "melting point": "183 to 184"}
{"smiles": "COc1ccc2ccc(CC3=NOS(=O)N3)cc2c1", "note": "(stereo unspecified)", "melting point": "146 to 147"}
{"smiles": "COc1cc(N2CCC(N3CCCN(C)CC3)CC2)ccc1Nc1ncc2ccc(-c3ccccc3OC)n2n1", "melting point": "69 to 76"}
{"smiles": "N#Cc1ccc(OCCCN2CCN(C(CC(=O)O)c3cccnc3)C(=O)C2=O)cc1", "note": "(single isomer, unassigned; (-))", "melting point": "199 to 200"}
{"smiles": "N#CNC(=Nc1ccccc1)NCCNCC(O)COc1ccccc1C#N", "note": "(stereo unspecified)", "melting point": "146 to 147"}
